Experiments:
[1] = target: T1, human NaP2b (SLC34A2) (Homo sapiens, UniProt O95436); test: Inhibition of NaP2b-mediated Pi (33P) uptake in transfected HEK293 cells, human NaP2b; assay type: cell-based; settings: HEK293 cells transfected with human NaP2b, 100 uM phosphate, 0.1 nM to 30 uM, read-out: pIC50 range for human NaP2b (converted)
T1 construct: host or cells: HEK293
T1 sequence (O95436 1-690): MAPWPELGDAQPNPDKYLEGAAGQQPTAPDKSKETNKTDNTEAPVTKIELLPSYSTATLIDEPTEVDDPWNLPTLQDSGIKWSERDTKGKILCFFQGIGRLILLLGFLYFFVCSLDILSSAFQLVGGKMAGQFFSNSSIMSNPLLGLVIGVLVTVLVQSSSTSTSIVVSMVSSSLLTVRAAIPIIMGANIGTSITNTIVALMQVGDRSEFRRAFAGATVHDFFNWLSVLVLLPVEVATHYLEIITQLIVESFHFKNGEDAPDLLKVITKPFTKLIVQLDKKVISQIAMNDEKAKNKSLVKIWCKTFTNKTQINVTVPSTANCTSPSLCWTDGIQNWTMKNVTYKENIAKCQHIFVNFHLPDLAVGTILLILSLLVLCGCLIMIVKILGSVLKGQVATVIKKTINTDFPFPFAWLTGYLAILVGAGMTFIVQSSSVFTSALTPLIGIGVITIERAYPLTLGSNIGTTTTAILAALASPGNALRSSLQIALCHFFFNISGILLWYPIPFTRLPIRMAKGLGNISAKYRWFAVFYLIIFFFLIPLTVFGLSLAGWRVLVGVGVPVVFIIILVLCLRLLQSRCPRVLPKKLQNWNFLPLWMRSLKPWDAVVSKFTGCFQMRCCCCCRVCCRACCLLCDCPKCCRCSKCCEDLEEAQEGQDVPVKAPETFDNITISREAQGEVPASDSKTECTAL
In short: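 HEK293 cells transiently expressing mutated human NaP2b, with PiT transport pharmacologically silenced; sodium-dependent 33P-phosphate uptake (100 uM KH2PO4, pH 7.4) measured over 3–30 min at room temperature by scintillation. Twelve compound concentrations from 0.1 nM to 30 uM, in duplicate; pIC50 calculated.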

[2] = Fecal recovery of orally administered compounds; assay type: in vivo; settings: rat; oral gavage; feces collected until 48 hr after dosing
Description: In this respect, it is understood that a recovered compound can include the sum of the parent compound and its metabolites derived from the parent compound, e.g., by means of hydrolysis, conjugation, reduction, oxidation, N-alkylation, glucuronidation, acetylation, methylation, sulfation, phosphorylation, or any other modification that adds atoms to or removes atoms from the parent compound, wherein the metabolites are generated via the action of any enzyme or exposure to any physiological environment including, pH, temperature, pressure, or interactions with foodstuffs as they exist in the digestive milieu. Measurement of fecal recovery of compound and metabolites can be carried out using standard methodology. For example, compound can be administered orally at a suitable dose (e.g., 10 mg/kg) and feces are then collected at predetermined times after dosing (e.g., 24 hours, 48 hours, 72 hours). Parent compound and metabolites can be extracted with organic solvent and analyzed quantitatively using mass spectrometry. A mass balance analysis of the parent compound and metabolites (including, parent=M, metabolite 1 [M+16], and metabolite 2 [M+32]) can be used to determine the percent recovery in the feces.
Quantitative determination of test compound level in feces after oral gavage was performed using the same set of animals used to determine test compound concentration in plasma (Example 352). The animals were kept in metabolic cages and feces were collected from the time of dosing until 48 hr after dosing. Upon collection, feces were dried by lyophilization and ground to a visually homogenous powder. Duplicate samples of ground feces from each individual animal were weighed out and extracted using organic solvent. Extracted samples were then diluted into mobile phase and test compound levels were quantitatively determined by LC-MS/MS analysis as described in Example 352 except that the standard curve was prepared in a feces matrix. Extraction conditions were not optimized for individual compounds, and thus may represent a minimal level of recovery.

IC50 [1]	% recovered in feces [2]	SMILES
1000 to 7940 nM	20-80%	O=C(O)CCSCc1cccc(C(=O)Nc2ccc(N3CCCCC3)cc2-c2cc(C(=O)NCc3cccc(C(F)(F)F)c3)ccn2)c1 [Example 1.1, 3-(3-((2-(4-((3-(trifluoromethyl)benzyl)carbamoyl)pyridin-2-yl)-4-(piperidin-1-yl)phenyl)carbamoyl)-benzylthio)propanoic acid]
< 1000 nM	20-80%	CCN(CC)c1ccc(NC(=O)c2cccc(C(=O)N(C)CCN3CCOCC3)c2)c(-c2cc(C(=O)NCc3cccc(C(F)(F)F)c3)ccn2)c1 [Example 25, N1-(4-(Diethylamino)-2-(4-((3-(trifluoromethyl)benzyl)carbamoyl)pyridin-2-yl)phenyl)-N3-methyl-N3-(2-morpholinoethyl)isophthalamide]
